Measured values published in US12180226B2, “Spirotricycle RIPK1 inhibitors and methods of uses thereof” (Merck Sharp & Dohme LLC, priority 2021, dated 2024).
pEC50: −log10 of the molar value. Where a name gives a salt, the structure may show the parent alone.

What follows are compounds tested against RIPK1 (recombinant GST-RIPK1 kinase domain, residues 1-327) (Homo sapiens (Human), UniProt Q13546) (assay: RIPK1-ADP-Glo Enzymatic Assay). Settings: ADP-Glo; 25 nM GST-RIPK1, 300 μM ATP; assay lower limit ~25 nM; read-out: RIPK1 V0 Ec50.
RIPK1 (recombinant GST-RIPK1 kinase domain, residues 1-327), sequence (Q13546 1-327): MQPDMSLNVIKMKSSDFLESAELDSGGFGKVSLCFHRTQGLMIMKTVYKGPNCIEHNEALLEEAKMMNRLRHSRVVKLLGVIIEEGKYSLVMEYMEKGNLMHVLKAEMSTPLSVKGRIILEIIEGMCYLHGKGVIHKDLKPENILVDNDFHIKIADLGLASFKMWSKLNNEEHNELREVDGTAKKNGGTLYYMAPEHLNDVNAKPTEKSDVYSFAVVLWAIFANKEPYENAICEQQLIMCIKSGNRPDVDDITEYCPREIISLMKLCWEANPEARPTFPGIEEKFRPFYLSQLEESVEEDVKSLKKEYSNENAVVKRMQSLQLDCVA
Assay type: biochemical
Procedure, shortened: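 Inhibition of ADP formation was measured after compound and enzyme (25 nM) were pre-incubated for 30 minutes at ambient temperature and the kinase reaction ran for 150 minutes at 300 μM ATP with dephosphorylated MBP substrate. EC50 values come from ten-point curves fitted non-linearly.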

| SMILES | pEC50 |
| --- | --- |
| CCc1cnc(N2CCC3(CC2)O[C@@H]2CC[C@@H](c4cc(F)cc(F)c4)N2C3=O)nc1 [Example 4.60, (5′S,7a′R)-5′-(3,5-difluorophenyl)-1-(5-ethylpyrimidin-2-yl)tetrahydro-3′H-spiro[piperidine-4,2′-pyrrolo[2,1-b] [1,3]oxazol]-3′-one] | 6.34 |
| COC(=O)c1ccc(N2CCC3(CC2)O[C@@H]2CC[C@@H](c4ccccc4)N2C3=O)nc1 [Example 4.202, methyl 6-[(5′S,7a′R)-3′-oxo-5′-phenyltetrahydro-1H,3′H-spiro[piperidine-4,2′-pyrrolo[2,1-b] [1,3]oxazol]-1-yl]pyridine-3-carboxylate] | 7.41 |
| COc1nc(N2CCC3(CC2)O[C@@H]2CC[C@@H](c4cc(F)cc(F)c4)N2C3=O)ncc1F [Example 4.21, (5′S,7a′R)-5′-(3,5-difluorophenyl)-1-(5-fluoro-4-methoxypyrimidin-2-yl)tetrahydro-3′H-spiro[piperidine-4,2′-pyrrolo[2,1-b] [1,3]oxazol]-3′-one] | > 7.60 |
| CCOc1cccc(C(=O)N2CCC3(CC2)O[C@@H]2CC[C@@H](c4cccc(F)c4)N2C3=O)c1 [Example 6.121, (5′S,7a′R)-1-(3-ethoxy-benzene-1-carbonyl)-5′-(3-fluorophenyl)-tetrahydro-3′H-spiro [piperidine-4,2′-pyrrolo[2,1-b][1,3]oxazol]-3′-one] | > 7.60 |
| O=C1N2[C@@H](CC[C@H]2c2ccccc2)OC12CCN(c1ccc(C3CC3)cn1)CC2 [Example 11.19, (5′S,7a′R)-1-(5-cyclopropylpyridin-2-yl)-5′-phenyltetrahydro-3′H-spiro[piperidine-4,2′-pyrrolo[2,1-b][1,3]oxazol]-3′-one] | 6.20 |
| Cc1ncc([C@@H]2CC[C@H]3OC4(CCN(C(=O)c5ccccc5)CC4F)C(=O)N32)cc1F (stereo partly drawn) [Example 2.10, (5′S,7a′R)-1-(benzenecarbonyl)-3-fluoro-5′-(5-fluoro-6-methylpyridin-3-yl)tetrahydro-3′H-spiro[piperidine-4,2′-pyrrolo[2,1-b][1,3]oxazol]-3′-one] | 6.87 |
| CCOC(=O)c1coc(-c2ccnc(N3CCC4(CC3)O[C@@H]3CC[C@@H](c5ccccc5)N3C4=O)c2)n1 [Example 4.173, ethyl 2-{2-[(5′S,7a′R)-3′-oxo-5′-phenyltetrahydro-1H,3′H-spiro[piperidine-4,2′-pyrrolo[2,1-b] [1,3]oxazol]-1-yl]pyridin-4-yl}-1,3-oxazole-4-carboxylate] | 7.16 |
| CSc1cc(N2CCC3(CC2)O[C@@H]2CC[C@@H](c4cc(F)cc(F)c4)N2C3=O)ncc1C#N [Example 4.71, 6-[(5′S,7a′R)-5′-(3,5-difluorophenyl)-3′-oxotetrahydro-1H,3′H-spiro[piperidine-4,2′-pyrrolo[2,1-b] [1,3]oxazol]-1-yl]-4-(methylsulfanyl)pyridine-3-carbonitrile] | 7.52 |
| N#Cc1cccc(C(=O)N2CCC3(CC2)O[C@@H]2CC[C@@H](c4ccccc4)N2C3=O)c1F [Example 6.140, 2-fluoro-3-[(5′S,7a′R)-3′-oxo-5′-phenyltetra-hydro-1H,3′H-spiro [piperidine-4,2′-pyrrolo[2,1-b][1,3]oxazole]-1-carbonyl] benzonitrile] | 7.33 |
| Cc1ccc([C@@H]2CC[C@H]3OC4(CCN(C(=O)c5ccccc5)CC4)C(=O)N32)cc1F [Example 17.15, (5′S,7a′R)-1-(benzenecarbonyl)-5′-(3-fluoro-4-methylphenyl)tetrahydro-3′H-spiro[piperidine-4,2′-pyrrolo[2,1-b][1,3]oxazol]-3′-one] | > 7.60 |
| N#Cc1ccc(N2CCC3(CC2)O[C@@H]2CC[C@@H](c4cncc(F)c4)N2C3=O)n2nccc12 [Example 14.3, 7-((5′S,7a′R)-5′-(5-fluoropyridin-3-yl)-3′-oxotetrahydro-3′H-spiro[piperidine-4,2′-pyrrolo[2,1-b]oxazol]-1-yl)pyrazolo[1,5-a]pyridine-4-carbonitrile] | > 7.60 |
| O=C1N2[C@@H](CC[C@H]2c2cc(F)cc(F)c2)OC12CCN(c1ncnc3c(F)cnn13)CC2 [Example 4.250, (5′S,7a′R)-5′-(3,5-difluorophenyl)-1-(8-fluoropyrazolo[1,5-a] [1,3,5]triazin-4-yl)tetrahydro-3′H-spiro[piperidine-4,2′-pyrrolo[2,1-b] [1,3]oxazol]-3′-one] | > 7.60 |
| O=C(c1ccccc1)N1CCC2(CC1)O[C@@H]1CC[C@@H](c3cnccn3)N1C2=O [Example 17.1, (5′S,7a′R)-1-benzoyl-5′-(pyrazin-2-yl)tetrahydro-3′H-spiro[piperidine-4,2′-pyrrolo[2,1-b]oxazol]-3′-one, TFA] | 7.46 |
| O=C1N2[C@@H](CC[C@H]2c2ccccc2)OC12CCN(c1ccnc3c(F)cnn13)CC2F (single isomer, unassigned) [Example 4.91, (3[R or S],4[S or R], 5′S,7a′R)-3-fluoro-1-(3-fluoropyrazolo[1,5-a]pyrimidin-7-yl)-5′-phenyltetrahydro-3′H-spiro[piperidine-4,2′-pyrrolo[2,1-b]oxazol]-3′-one, TFA salt] | > 7.60 |
| O=C1N2[C@@H](CC[C@H]2c2ccccc2F)OC12CCN(c1ccnc(Cl)c1)CC2 [Example 4.268, (5′S,7a′R)-1-(2-chloropyridin-4-yl)-5′-(2-fluorophenyl)tetrahydro-3′H-spiro[piperidine-4,2′-pyrrolo[2,1-b] [1,3]oxazol]-3′-one] | > 7.60 |
| O=C1N2C(=NC13CCN(c1cc(-c4cnn(C(F)F)c4)ncn1)CC3)CC[C@H]2c1cc(F)cc(F)c1 [Example 10.3, (S)-1-(6-(1-(difluoromethyl)-1H-pyrazol-4-yl)pyrimidin-4-yl)-5′-(3,5-difluorophenyl)-6′,7′-dihydro-3′H,5′H-spiro[piperidine-4,2′-pyrrolo[1,2-a]imidazol]-3′-one] | 6.45 |
| Nc1nnc(N2CCC3(CC2)O[C@@H]2CC[C@@H](c4ccccc4)N2C3=O)s1 [Example 11.23, (5′S,7a′R)-1-(5-amino-1,3,4-thiadiazol-2-yl)-5′-phenyltetrahydro-3′H-spiro[piperidine-4,2′-pyrrolo[2,1-b][1,3]oxazol]-3′-one] | 6.51 |

Further lines, results first:

| pEC50 | SMILES |
| --- | --- |
| 6.13 | CC(C)(O)C#Cc1ccc(C(=O)N2CCC3(CC2)O[C@@H]2CC[C@@H](c4cc(F)cc(F)c4)N2C3=O)cc1 [Example 5.26, (5′S,7a′R)-5′-(3,5-difluoro-phenyl)-1-(4-(3-hydroxy-3-methylbut-1-yn-1-yl)-benzoyl)tetrahydro-3′H-spiro[piperidine-4,2′-pyrrolo[2,1-b]oxazol]-3′-one] |
| > 7.60 | O=C(c1ccco1)N1CCC2(CC1)O[C@@H]1CC[C@@H](c3cc(F)cc(F)c3)N1C2=O [Example 5.50, (5′S,7a′R)-5′-(3,5-difluoro-phenyl)-1-(furan-2-carbon-yl)tetrahydro-3′H-spiro [piperidine-4,2′-pyrrolo-[2,1-b]oxazol]-3′-one] |
| > 7.60 | Cc1cccc(C(=O)N2CCC3(CC2)O[C@@H]2CC[C@@H](c4cc(F)cc(F)c4)N2C3=O)c1F [Example 6.8, (5′S,7a′R)-5′-(3,5-difluorophenyl)-1-(2-fluoro-3-methyl-benzene-1-carbonyl) tetrahydro-3′H-spiro [piperidine-4,2′-pyrrolo[2,1-b][1,3]oxazol]-3′-one] |
| 7.60 | O=C(c1nccs1)N1CCC2(CC1)O[C@@H]1CC[C@@H](c3cc(F)cc(F)c3)N1C2=O [Example 5.35, (5′S,7a′R)-5′-(3,5-difluoro-phenyl)-1-(thiazole-2-carbonyl)tetrahydro-3′H-spiro[piperidine-4,2′-pyrrolo[2,1-b]oxazol]-3′-one] |
| 6.28 | Cc1ncccc1C(=O)N1CCC2(CC1)O[C@@H]1CC[C@@H](c3cc(F)cc(F)c3)N1C2=O [Example 6.52, (5′S,7a′R)-5′-(3,5-difluorophenyl)-1-(2-methylpyridine-3-carbonyl)tetrahydro-3′H-spiro[piperidine-4,2′-pyrrolo[2,1-b] [1,3]oxazol]-3′-one] |
| 7.37 | Cc1ocnc1C(=O)N1CCC2(CC1)O[C@@H]1CC[C@@H](c3cccc(F)c3)N1C2=O [Example 6.128, (5′S,7a′R)-5′-(3-fluorophenyl)-1-(5-methyl-1,3-oxazole-4-carbonyl)tetrahydro-3′H-spiro[piperidine-4,2′-pyrrolo[2,1-b] [1,3]oxazol]-3′-one] |
| 7.51 | O=C(c1cnn2ccccc12)N1CCC2(CC1)O[C@@H]1CC[C@@H](c3cc(F)cc(F)c3)N1C2=O [Example 5.72, (5′S,7a′R)-5′-(3,5-difluoro-phenyl)-1-(pyrazolo[1,5-a]-pyridine-3-carbonyl)tetra-hydro-3′H-spiro[piperidine-4,2′-pyrrolo[2,1-b]oxazol]-3′-one] |
| > 7.60 | N#Cc1ccc(F)c(C(=O)N2CCC3(CC2)O[C@@H]2CC[C@@H](c4cc(F)cc(F)c4)N2C3=O)c1 [Example 5.16, 3-((5′S,7a′R)-5′-(3,5-difluorophenyl)-3′-oxo-tetrahydro-3′H-spiro [piperidine-4,2′-pyrrolo-[2,1-b]oxazole]-1-carbon-yl)-4-fluorobenzonitrile] |
| 6.35 | O=C(c1nnc(-c2ccccn2)s1)N1CCC2(CC1)O[C@@H]1CC[C@@H](c3cc(F)cc(F)c3)N1C2=O [Example 6.45, (5′S,7a′R)-5′-(3,5-difluorophenyl)-1-[5-(pyridin-2-yl)-1,3,4-thiadiazole-2-carbon-yl]tetrahydro-3′H-spiro[piperidine-4,2′-pyrrolo[2,1-b][1,3]oxazol]-3′-one] |
| 6.58 | O=C(c1ccccc1OC(F)F)N1CCC2(CC1)O[C@@H]1CC[C@@H](c3cc(F)cc(F)c3)N1C2=O [Example 6.61, (5′S,7a′R)-1-[2-(difluoromethoxy)-benzene-1-carbonyl]-5′-(3,5-difluorophen-yl)tetrahydro-3′H-spiro[piperidine-4,2′-pyrrolo[2,1-b][1,3]-oxazol]-3′-one] |
